# Read-outs that look alike come from different tables or passages of the source.
# How the values were obtained:
# PC3 = assay: cell growth inhibition SRB, PC3 (vascular study); assay type: cell-based; conditions: Homo sapiens, PC-3, N = 3, Table 14
# Source text: (§1) Cell growth inhibition studies. […] Cells were stained with sulphorhodamine B (SRB) solution.
# [1] = tested on: confluent HUVEC monolayers; assay: endothelial monolayer permeability assay; assay type: cell-based, human; conditions: leakage of FITC-dextran (MW 40,000) after 1, 2 and 4 h
# Source text: Endothelial monolayer permeability assay.
# HUVEC = assay: endothelial cell growth inhibition SRB, HUVEC; assay type: cell-based, human; conditions: for IC50: Homo sapiens, HUVEC, SRB, N = 3, growth factor-supplemented endothelial cells; for Selectivity ratio, cancer cells/HUVEC: mean IC50 in PC3 and T47D over IC50 in HUVEC
# T47D = assay: cell growth inhibition SRB, T47D; assay type: cell-based; conditions: Homo sapiens, N = 3, Table 14
# Source text: as §1
# A549 = assay: SRB antiproliferation assay, A549 lung cancer; conditions: Homo sapiens, A549, 96 h, read-out: IC50 in the SRB, A549
# PC-3 [2] = assay: SRB antiproliferation assay, PC-3 prostate cancer
# PC-3/TxR tumors = conditions: for Tumor size End: mouse, in vivo, po
# MES-SA/DX5 = assay: SRB antiproliferation assay, doxorubicin-resistant MES-SA/DX5; conditions: read-out: IC50 in the SRB, MES-SA/DX5, uterine MDR, 96 h, N = 3
# OVCAR-8 = assay: SRB antiproliferation assay, OVCAR-8 ovarian cancer; conditions: Homo sapiens, OVCAR-8, 96 h, read-out: IC50 in the SRB, OVCAR8
# MES-SA/DX5 xenografts = assay: MES-SA/DX5 xenograft in nude mice; conditions: MES-SA/DX5 uterine (MDR) xenograft, IV 10 mg/kg 1/wk
# MCF7 = assay: SRB antiproliferation assay, MCF7 breast cancer; conditions: Homo sapiens, MCF7, 96 h, read-out: IC50 in the SRB, MCF7
# MES-SA = assay: SRB antiproliferation assay, MES-SA uterine cancer; conditions: Homo sapiens, 96 h, read-out: IC50 in the SRB, MES-SA
# PC-3 [3] = assay: apoptosis, cytoplasmic DNA-histone complexes, PC-3; assay type: cell-based, human; conditions: 0.8 to 600 nmol/L, 24 h
# OVCAR8 xenografts = assay: OVCAR8 xenograft in nude mice; conditions: OVCAR8 ovary xenograft, IV 10 mg/kg 1/wk
# C26 xenografts = assay: C26 xenograft in nude mice; conditions: C26 colon xenograft, IV 10 mg/kg 1/wk
# C26 = assay: SRB antiproliferation assay, C26 colon cancer; conditions: C26, 96 h, read-out: IC50 in the SRB, C26
# A549 xenografts = assay: A549 xenograft in nude mice; conditions: A549 lung xenograft, IV 10 mg/kg 1/wk
# [4] = tested on: HUVEC capillary tube formation; assay: capillary formation assay on Matrigel; assay type: cell-based, human; conditions: at toxic concentration
# [5] = pharmacokinetic study in beagle dogs; conditions: dog, PO 5 mg/kg vs IV 2 mg/kg
# [6] = tested on: prostate cancer cells (LNCaP, PC-3, DU-145, PPC-1); assay: SRB assay, prostate cancer cells; assay type: cell-based, human; conditions: Homo sapiens, range over prostate cancer cell lines; read-out: IC50 values against prostate cancer cells
# LNCaP = assay: SRB antiproliferation assay, LNCaP prostate cancer; conditions: read-out: Cytotoxicity IC50 mean ± SD, LNCaP; 96 h treatment, N = 3
# [7] = pharmacokinetic study in Sprague-Dawley rats; conditions: rat
# PPC-1 = assay: SRB antiproliferation assay, PPC-1 prostate cancer; conditions: read-out: Cytotoxicity IC50 mean ± SD, PPC-1; 96 h treatment, N = 3
# [8] = pharmacokinetic study in ICR mice; conditions: mouse, PO 20 mg/kg vs IV 10 mg/kg
# Porcine brain tubulin = molecular target: T1, Porcine brain tubulin (Sus scrofa, UniProt P02550+P02554); assay type: biochemical; conditions: 5 μM, at 15 min
# T1 construct: […]; purchased Cytoskeleton, Denver, Colo; host or cells: porcine brain
# CaCO-2 = assay: permeability, CaCO-2 assay; conditions: mean of duplicate studies
# PC-3/TxR = assay: apoptosis, cytoplasmic DNA-histone complexes, PC-3/TxR; assay type: cell-based, human; conditions: 0.8 to 600 nmol/L, 24 h
# DU 145 = assay: SRB antiproliferation assay, DU 145 prostate cancer; conditions: read-out: Cytotoxicity IC50 mean ± SD, Du-145; 96 h treatment, N = 3
# [9] = tested on: colchicine-binding site on tubulin; assay: competitive mass binding assay, colchicine-tubulin binding; conditions: tubulin 1 mg/mL
smiles,measurement,setting,value
"COc1ccc(/C=C\c2cc(OC)c(OC)c(OC)c2)cc1O [CA4, reference compound]",IC50,PC3,3.2 nM
same,permeability of endothelial cell monolayer,[1],increased permeability
same,IC50,HUVEC,1.2 nM
same,IC50,T47D,6 nM
"CC(=O)O[C@@]12CO[C@@H]1C[C@H](O)[C@@]1(C)C(=O)[C@H](O)C3=C(C)[C@@H](OC(=O)[C@H](O)[C@@H](NC(=O)OC(C)(C)C)c4ccccc4)C[C@@](O)([C@@H](OC(=O)c4ccccc4)[C@H]21)C3(C)C [Docetaxel, reference compound]",IC50,A549,0.2 nM
same,IC50,"PC-3 [2]; read-out: Cytotoxicity IC50 mean ± SD, PC-3, 96 h treatment, N = 3",1.2 ± 0.1 nM
same,IC50,"PC-3 [2]; read-out: IC50 in the SRB, PC3, 96 h treatment, N = 3, Table 15",1 to 5 nM
same,TGI,"PC-3/TxR tumors; PC3/TXR prostate (MDR) xenograft, IV 10 mg/kg 1/wk",14%
same,TGI,"PC-3/TxR tumors; PC-3/TxR xenograft, IV 10 mpk day 1 and 9, day 19",14%
same,TGI,"PC-3/TxR tumors; PC-3/TxR xenograft, IV 20 mpk day 1 and 9, day 19",56%
same,IC50,MES-SA/DX5,26 nM
same,IC50,MES-SA/DX5; listed as DTX,426 nM
same,IC50,OVCAR-8,0.4 nM
same,TGI,MES-SA/DX5 xenografts,47%
same,IC50,MCF7,0.1 nM
same,IC50,MES-SA,0.1 nM
same,induction of cell apoptosis in PC-3,PC-3 [3],highly potent
same,TGI,OVCAR8 xenografts,22%
same,TGI,C26 xenografts,35%
same,IC50,C26,4 nM
same,TGI,A549 xenografts,44%
COc1cccc2c1C(=O)c1c(O)c3c(c(O)c1C2=O)C[C@@](O)(C(=O)CO)C[C@@H]3O[C@H]1C[C@H](N)[C@H](O)[C@H](C)O1 [Doxorubicin],capillary construction,[4],did not affect
same,permeability of endothelial cell monolayer,[1],did not induce any change
same,"Selectivity ratio, cancer cells/HUVEC",HUVEC,1.4
same,"Selectivity ratio, cancer cells/HUVEC",HUVEC; listed as doxorubicin,not specific to endothelial cells
"COc1cc(C(=O)c2csc(Nc3ccc4[nH]ccc4c3)n2)cc(OC)c1OC [compound 55, (2-(1H-indol-5-ylamino)thiazol-4-yl)(3,4,5-trimethoxyphenyl)methanone]",IC50,"PC-3 [2]; human, PC-3 cells, 96 h",16.5 ± 1.5 nM
same,Body weight End,"PC-3/TxR tumors; PC-3/TxR xenograft, PO 10 mpk b.i.d × 5/w, day 26, start 29 ± 2",26 ± 3 g
same,TGI,"PC-3/TxR tumors; PC-3/TxR xenograft, PO 30 mpk b.i.d × 5/w, day 26, 30 mg/kg",> 100%
same,Body weight End,"PC-3/TxR tumors; PC-3/TxR xenograft, PO 30 mpk b.i.d × 5/w, day 26, start 29 ± 3",30 ± 2 g
same,Tumor size End,PC-3/TxR tumors; 10 mg/kg,1152 ± 433 mm^3
same,Tumor size End,PC-3/TxR tumors; 30 mg/kg,101 ± 19 mm^3
same,F,[5],36%
same,IC50,PC3,23.3 nM
same,IC50,[6],7.5 to 24.1 nM
same,IC50,LNCaP,27 ± 0.6 nM
same,AUC,[7]; IV 5 mg/kg,509 ± 73 µg·min/mL
same,Vss,[7]; IV 5 mg/kg,1.0 ± 0.1 L/kg
same,AUC,[7]; PO 10 mg/kg,246 ± 163 µg·min/mL
same,F,[7]; PO 10 mg/kg vs IV 5 mg/kg,24%
same,IC50,PPC-1,36 ± 0.4 nM
same,induction of cell apoptosis in PC-3,PC-3 [3],equally potent
same,F,[8],34%
same,inhibition of tubulin polymerization,Porcine brain tubulin,40%
same,Permeability Papp(A→B) in CaCO-2 assay,CaCO-2,99 10^−6 cm/s
same,permeability of endothelial cell monolayer,[1],increased permeability
same,IC50,HUVEC,9.7 nM
same,IC50,T47D,37.4 nM
same,induction of cell apoptosis in PC-3/TxR,PC-3/TxR,equally potent
same,IC50,DU 145,38 ± 0.6 nM
same,competition with colchicine for tubulin binding,[9],competed effectively with colchicine for tubulin binding

# Source: patent US10865196B2, “Compounds for treatment of cancer” (University of Tennessee Research Foundation, priority 2008, dated 2020)
